Laboratory results from the supplement of paper PMC10307832.

Assays:
Experiment in all cases: relative viability (nuclei count vs DMSO), 5 days (fraction); higher = more cells survive
[1] = compound: Cc1cc(Nc2cc(N3CCN(C)CC3)nc(Sc3ccc(NC(=O)C4CC4)cc3)n2)n[nH]1 [Tozasertib]
In short: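 Viability is treated-well nuclei as a fraction of vehicle-well nuclei, reported as the median across plates. Before counting, lung cancer cell lines were kept overnight at 37 °C in 1536-well plates, pinned with five √10-spaced library-drug doses on vehicle-anchored plates, and left 5 days without medium change, then fixed, permeabilised and Hoechst-stained in one step, imaged at 4× and counted by MetaXpress. A plate passed only if control CV was below 25% and at least one doubling occurred.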

[2] = compound: Cc1cc(Nc2cc(N3CCN(C)CC3)nc(Sc3ccc(NC(=O)C4CC4)cc3)n2)n[nH]1 [Tozasertib] + CC(C)C[C@H](NC(=O)[C@H](Cc1ccccc1)NC(=O)c1cnccn1)B(O)O [Bortezomib] (partner 0.002 µM)
In short: (§1)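 Nuclei were stained with Hoechst during a one-step fixation (final 0.05% Triton X-100, 1% formaldehyde, 1 ug/ml Hoechst) carried out 5 days after dosing, then counted on 4× images. The cells, lung cancer lines in 1536-well plates, had been dosed by pin tool the day after seeding with one drug alone or a fixed anchor-drug dose plus five library-drug doses (not always all listed) in √10 steps. Relative viability is the nuclei count in treated wells divided by that in vehicle wells, and each value is the median of duplicate plates.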

[3] = compound: Cc1cc(Nc2cc(N3CCN(C)CC3)nc(Sc3ccc(NC(=O)C4CC4)cc3)n2)n[nH]1 [Tozasertib] + CC1(C)CCC(c2ccc(Cl)cc2)=C(CN2CCN(c3ccc(C(=O)NS(=O)(=O)c4ccc(N[C@H](CCN5CCOCC5)CSc5ccccc5)c(S(=O)(=O)C(F)(F)F)c4)cc3)CC2)C1 [Navitoclax] (partner 0.5 µM)
In short: as §1

[4] = compound: Cc1cc(Nc2cc(N3CCN(C)CC3)nc(Sc3ccc(NC(=O)C4CC4)cc3)n2)n[nH]1 [Tozasertib] + COc1cc2c(Oc3ccc(NC(=O)C4(C(=O)Nc5ccc(F)cc5)CC4)cc3F)ccnc2cc1OCCCN1CCOCC1 [Foretinib] (partner 0.25 µM)
In short: as §1

[5] = compound: Cc1cc(Nc2cc(N3CCN(C)CC3)nc(Sc3ccc(NC(=O)C4CC4)cc3)n2)n[nH]1 [Tozasertib] + CS(=O)(=O)CCNCc1ccc(-c2ccc3ncnc(Nc4ccc(OCc5cccc(F)c5)c(Cl)c4)c3c2)o1 [Lapatinib] (partner 2 µM)
In short: as §1

[6] = compound: Cc1cc(Nc2cc(N3CCN(C)CC3)nc(Sc3ccc(NC(=O)C4CC4)cc3)n2)n[nH]1 [Tozasertib] + CS(=O)(=O)N1CCN(Cc2cc3nc(-c4cccc5[nH]ncc45)nc(N4CCOCC4)c3s2)CC1 [Pictilisib] (partner 1 µM)
In short: as §1

[7] = compound: Cc1cc(Nc2cc(N3CCN(C)CC3)nc(Sc3ccc(NC(=O)C4CC4)cc3)n2)n[nH]1 [Tozasertib] + C[C@@H](Oc1cc(-c2cnn(C3CCNCC3)c2)cnc1N)c1c(Cl)ccc(F)c1Cl [Crizotinib] (partner 1 µM)
In short: as §1

[8] = compound: Cc1cc(Nc2cc(N3CCN(C)CC3)nc(Sc3ccc(NC(=O)C4CC4)cc3)n2)n[nH]1 [Tozasertib] + C[C@]1(O)C[C@@H](c2nc(-c3ccc4ccc(-c5ccccc5)nc4c3)c3c(N)nccn32)C1 [Linsitinib] (partner 1 µM)
In short: as §1

[9] = compound: Cc1cc(Nc2cc(N3CCN(C)CC3)nc(Sc3ccc(NC(=O)C4CC4)cc3)n2)n[nH]1 [Tozasertib] + Cc1nc(NC(=O)N2CCC[C@H]2C(N)=O)sc1-c1ccnc(C(C)(C)C(F)(F)F)c1 [Alpelisib] (partner 2 µM)
In short: as §1

[10] = compound: Cc1cc(Nc2cc(N3CCN(C)CC3)nc(Sc3ccc(NC(=O)C4CC4)cc3)n2)n[nH]1 [Tozasertib] + O=C(CCCCCCC(=O)Nc1ccccc1)NO [Vorinostat] (partner 1 µM)
In short: as §1

[11] = compound: Cc1cc(Nc2cc(N3CCN(C)CC3)nc(Sc3ccc(NC(=O)C4CC4)cc3)n2)n[nH]1 [Tozasertib] + O=C(c1cc(Cc2n[nH]c(=O)c3ccccc23)ccc1F)N1CCN(C(=O)C2CC2)CC1 [Olaparib] (partner 8 µM)
In short: as §1

Row | Cell Line | relative viability ([1]; 0.004 µM) | relative viability ([1]; 0.01265 µM) | relative viability ([1]; 0.04 µM) | relative viability ([1]; 0.1265 µM) | relative viability ([2]; first compound 0.004 µM) | relative viability ([2]; first compound 0.1265 µM) | relative viability ([3]; first compound 0.004 µM) | relative viability ([3]; first compound 0.01265 µM) | relative viability ([3]; first compound 0.04 µM) | relative viability ([3]; first compound 0.1265 µM) | relative viability ([4]; first compound 0.004 µM) | relative viability ([4]; first compound 0.01265 µM) | relative viability ([4]; first compound 0.04 µM) | relative viability ([4]; first compound 0.1265 µM) | relative viability ([5]; first compound 0.004 µM) | relative viability ([5]; first compound 0.01265 µM) | relative viability ([5]; first compound 0.1265 µM) | relative viability ([6]; first compound 0.004 µM) | relative viability ([6]; first compound 0.01265 µM) | relative viability ([6]; first compound 0.04 µM) | also measured
1 | IA-LM | 1.06 | 0.819 | 0.954 | 0.795 | 0.794 | 0.849 | 0.969 | 0.784 | 0.767 | 0.797 | 1.38 | 1.18 | 1.11 | 0.914 | 0.967 | 0.838 | 0.479 | 0.336 | 0.302 | 0.457 | relative viability ([5]; first compound 0.04 µM): 1.13; relative viability ([6]; first compound 0.1265 µM): 0.265; relative viability ([7]; first compound 0.004 µM): 0.784; relative viability ([7]; first compound 0.01265 µM): 1.05; relative viability ([7]; first compound 0.04 µM): 0.817; relative viability ([7]; first compound 0.1265 µM): 0.851; relative viability ([8]; first compound 0.004 µM): 0.697; relative viability ([8]; first compound 0.01265 µM): 0.564; relative viability ([8]; first compound 0.04 µM): 0.533; relative viability ([8]; first compound 0.1265 µM): 0.307; relative viability ([9]; first compound 0.004 µM): 0.715; relative viability ([9]; first compound 0.01265 µM): 0.753; relative viability ([9]; first compound 0.04 µM): 0.871; relative viability ([9]; first compound 0.1265 µM): 0.457; relative viability ([10]; first compound 0.04 µM): 0.855; relative viability ([10]; first compound 0.1265 µM): 0.854; relative viability ([11]; first compound 0.004 µM): 0.976; relative viability ([11]; first compound 0.01265 µM): 0.909; relative viability ([11]; first compound 0.04 µM): 0.779; relative viability ([11]; first compound 0.1265 µM): 0.814
2 | NCI-H1299 | 1.04 | 1.02 | 1.01 | 1.02 | 1.07 | 1.03 | 1.1 | 1.04 | 1.06 | 1.07 | 1.17 | 1.07 | 1.08 | 0.499 | 1.03 | 0.947 | 0.703 | 0.951 | 0.808 | 0.75 | relative viability ([2]; first compound 0.01265 µM): 1.01; relative viability ([2]; first compound 0.04 µM): 1.02; relative viability ([6]; first compound 0.1265 µM): 0.615; relative viability ([7]; first compound 0.004 µM): 0.998; relative viability ([7]; first compound 0.01265 µM): 0.996; relative viability ([7]; first compound 0.04 µM): 0.952; relative viability ([7]; first compound 0.1265 µM): 0.761; relative viability ([8]; first compound 0.004 µM): 0.952; relative viability ([8]; first compound 0.01265 µM): 0.979; relative viability ([8]; first compound 0.04 µM): 0.988; relative viability ([8]; first compound 0.1265 µM): 0.597; relative viability ([9]; first compound 0.004 µM): 1.08; relative viability ([9]; first compound 0.01265 µM): 1.13; relative viability ([9]; first compound 0.04 µM): 1.04; relative viability ([9]; first compound 0.1265 µM): 1.05; relative viability ([11]; first compound 0.004 µM): 0.982; relative viability ([11]; first compound 0.01265 µM): 0.939; relative viability ([11]; first compound 0.04 µM): 0.943; relative viability ([11]; first compound 0.1265 µM): 0.961
3 | EBC-1 | 1.12 | 1.01 | 1.01 | 0.776 | 0.692 | 0.367 | 0.351 | 0.329 | 0.372 | 0.251 | 0.111 | 0.0987 | 0.109 | 0.105 | 0.237 | 0.213 | 0.173 | 0.429 | 0.333 | 0.371 | relative viability ([2]; first compound 0.01265 µM): 0.461; relative viability ([2]; first compound 0.04 µM): 0.532; relative viability ([5]; first compound 0.04 µM): 0.209; relative viability ([6]; first compound 0.1265 µM): 0.39; relative viability ([7]; first compound 0.004 µM): 0.234; relative viability ([7]; first compound 0.01265 µM): 0.202; relative viability ([7]; first compound 0.04 µM): 0.198; relative viability ([7]; first compound 0.1265 µM): 0.151; relative viability ([8]; first compound 0.004 µM): 0.866; relative viability ([8]; first compound 0.01265 µM): 0.841; relative viability ([8]; first compound 0.04 µM): 0.886; relative viability ([8]; first compound 0.1265 µM): 0.486; relative viability ([9]; first compound 0.004 µM): 0.814; relative viability ([9]; first compound 0.01265 µM): 0.801; relative viability ([9]; first compound 0.1265 µM): 0.578; relative viability ([11]; first compound 0.004 µM): 0.697; relative viability ([11]; first compound 0.01265 µM): 0.724; relative viability ([11]; first compound 0.04 µM): 0.737; relative viability ([11]; first compound 0.1265 µM): 0.608
